Measurements taken from US20250236616A1, “IMMUNOMODULATING AZALIDES” (Zoetis Services LLC, priority 2021, published 2025).

How the values were obtained:
Type in all cases: cell-based
IL-1β = test: Whole bovine blood assay, LPS-induced IL-1β (inhibition / overstimulation); settings: drug concentration giving overstimulation (OS) of LPS-induced IL-1β, top concentration 250 μM
How it was run: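 IL-1β was quantified by MSD U-Plex chemiluminescence in plasma and normalized to BCA total protein. Bovine blood was pretreated 4 h at 37 °C with compound dilutions before 18 h LPS challenge (1 μg/mL final). Rising IL-1β at high concentrations was recorded as overstimulation.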

TNF-α = test: Whole bovine blood assay, LPS-induced TNF-α; settings: fresh whole bovine blood, LPS stimulant; top drug concentration 250 μM
How it was run: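 Fresh heparinized bovine whole blood was preincubated with compound 4 h at 37 °C, then stimulated with LPS (final 1 μg/mL) for 18 h at 37 °C. Plasma TNF-α was quantified by MSD U-Plex chemiluminescent immunoassay, normalized to total protein (BCA), and IC50 taken for LPS-induced TNF-α inhibition.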

IL-6 = test: Whole bovine blood assay, LPS-induced IL-6; settings: fresh whole bovine blood, LPS stimulant; top drug concentration 250 μM

Compound `CC[C@H]1OC(=O)[C@H](C)[C@@H](O)[C@H](C)[C@@H](O[C@@H]2O[C@H](C)C[C@H](N(C)S(=O)(=O)c3cc4ccccc4o3)[C@H]2Oc2ccc(F)cc2)[C@](C)(O)C[C@@H](C)CN[C@H](C)[C@@H](O)[C@]1(C)O` [Example A-24] has a minimal effective concentration (IL-1β) of 19 µM, an IC50 (TNF-α) of 30 µM and an IC50 (IL-6) of 26 µM.

In the case of `CC[C@H]1OC(=O)[C@H](C)[C@@H](O)[C@H](C)[C@@H](O[C@@H]2O[C@H](C)C[C@H](N(C)S(=O)(=O)c3ccc(F)cc3)[C@H]2Oc2ccc(F)cc2)[C@](C)(O)C[C@@H](C)CN[C@H](C)[C@@H](O)[C@]1(C)O` [Example A-25], the minimal effective concentration (IL-1β) is reported as 16 µM, the IC50 (TNF-α) is reported as 75 µM and the IC50 (IL-6) is reported as 28 µM.

For `CC[C@H]1OC(=O)[C@H](C)[C@@H](O)[C@H](C)[C@@H](O[C@@H]2O[C@H](C)C[C@H](N(C)S(=O)(=O)c3nccn3C)[C@H]2Oc2ccc(F)cc2)[C@](C)(O)C[C@@H](C)CN[C@H](C)[C@@H](O)[C@]1(C)O` [Example A-27], the minimal effective concentration (IL-1β) was 100 µM, the IC50 (TNF-α) was 141 µM and the IC50 (IL-6) was 66 µM.

In the case of `CC[C@H]1OC(=O)[C@H](C)[C@@H](O)[C@H](C)[C@@H](O[C@@H]2O[C@H](C)C[C@H](N(C)S(=O)(=O)c3cnc4n3CCC4)[C@H]2Oc2ccc(F)cc2)[C@](C)(O)C[C@@H](C)CN[C@H](C)[C@@H](O)[C@]1(C)O` [Example A-28], the minimal effective concentration (IL-1β) is reported as 81 µM, the IC50 (TNF-α) is reported as > 250 µM and the IC50 (IL-6) is reported as 120 µM.

`CC[C@H]1OC(=O)[C@H](C)[C@@H](O)[C@H](C)[C@@H](O[C@@H]2O[C@H](C)C[C@H](N(C)S(=O)(=O)c3nccn3C)[C@H]2Oc2ccc(F)c(C(F)(F)F)c2)[C@](C)(O)C[C@@H](C)CN[C@H](C)[C@@H](O)[C@]1(C)O` [Example A-34] gave a minimal effective concentration (IL-1β) of 40 µM, an IC50 (TNF-α) of 205 µM and an IC50 (IL-6) of 59 µM.

With `CC[C@H]1OC(=O)[C@H](C)[C@@H](O[C@H]2C[C@@](C)(OC)[C@](O)(CNCCN(C)C)[C@H](C)O2)[C@H](C)[C@@H](O[C@@H]2O[C@H](C)C[C@H](N(C)S(=O)(=O)c3ccc(Cl)cc3)[C@H]2O)[C@](C)(O)C[C@@H](C)CN[C@H](C)[C@@H](O)[C@]1(C)O` [Example B-35] the minimal effective concentration (IL-1β) was 16 µM, the IC50 (TNF-α) was > 250 µM and the IC50 (IL-6) was 54 µM.

`CC[C@H]1OC(=O)[C@H](C)[C@@H](O[C@H]2C[C@@](C)(OC)[C@](O)(CNC)[C@H](C)O2)[C@H](C)[C@@H](O[C@@H]2O[C@H](C)C[C@H](N(C)S(=O)(=O)c3ccc(Cl)cc3)[C@H]2O)[C@](C)(O)C[C@@H](C)CN[C@H](C)[C@@H](O)[C@]1(C)O` [Example B-38] was tested, and the minimal effective concentration (IL-1β) was 5 µM, the IC50 (TNF-α) was 32 µM and the IC50 (IL-6) was 22 µM.

In the case of `CCCNC[C@]1(O)[C@H](C)O[C@@H](O[C@H]2[C@H](C)[C@@H](O[C@@H]3O[C@H](C)C[C@H](N(C)S(=O)(=O)N4CCc5ccccc5C4)[C@H]3O)[C@](C)(O)C[C@@H](C)CN[C@H](C)[C@@H](O)[C@](C)(O)[C@@H](CC)OC(=O)[C@@H]2C)C[C@@]1(C)OC` [Example B-42], the minimal effective concentration (IL-1β) is reported as 2 µM, the IC50 (TNF-α) is reported as 13 µM and the IC50 (IL-6) is reported as 8 µM.

With `CCCNC[C@]1(O)[C@H](C)O[C@@H](O[C@H]2[C@H](C)[C@@H](O[C@@H]3O[C@H](C)C[C@H](N(C)S(=O)(=O)N(C)Cc4ccccc4)[C@H]3O)[C@](C)(O)C[C@@H](C)CN[C@H](C)[C@@H](O)[C@](C)(O)[C@@H](CC)OC(=O)[C@@H]2C)C[C@@]1(C)OC` [Example B-44] the minimal effective concentration (IL-1β) was 3 µM, the IC50 (TNF-α) was 13 µM and the IC50 (IL-6) was 9 µM.

In the case of `CCCNC[C@]1(O)[C@H](C)O[C@@H](O[C@H]2[C@H](C)[C@@H](O[C@@H]3O[C@H](C)C[C@H](N(C)S(=O)(=O)N4Cc5ccccc5C4)[C@H]3O)[C@](C)(O)C[C@@H](C)CN[C@H](C)[C@@H](O)[C@](C)(O)[C@@H](CC)OC(=O)[C@@H]2C)C[C@@]1(C)OC` [Example B-45], the minimal effective concentration (IL-1β) is reported as 3 µM, the IC50 (TNF-α) is reported as 16 µM and the IC50 (IL-6) is reported as 8 µM.

In the case of `CCCNC[C@]1(O)[C@H](C)O[C@@H](O[C@H]2[C@H](C)[C@@H](O[C@@H]3O[C@H](C)C[C@H](N(C)S(=O)(=O)N4CCCCC4)[C@H]3O)[C@](C)(O)C[C@@H](C)CN[C@H](C)[C@@H](O)[C@](C)(O)[C@@H](CC)OC(=O)[C@@H]2C)C[C@@]1(C)OC` [Example B-47], the minimal effective concentration (IL-1β) is reported as 40 µM, the IC50 (TNF-α) is reported as 13 µM and the IC50 (IL-6) is reported as 24 µM.

In the case of `CCCNC[C@]1(O)[C@H](C)O[C@@H](O[C@H]2[C@H](C)[C@@H](O[C@@H]3O[C@H](C)C[C@H](N(C)S(=O)(=O)N(C)C)[C@H]3O)[C@](C)(O)C[C@@H](C)CN[C@H](C)[C@@H](O)[C@](C)(O)[C@@H](CC)OC(=O)[C@@H]2C)C[C@@]1(C)OC` [Example B-51], the minimal effective concentration (IL-1β) is reported as 97 µM, the IC50 (TNF-α) is reported as 38 µM and the IC50 (IL-6) is reported as 62 µM.

`CCCNC[C@]1(O)[C@H](C)O[C@@H](O[C@H]2[C@H](C)[C@@H](O[C@@H]3O[C@H](C)C[C@H](N(C)S(=O)(=O)Nc4ccc(F)cc4)[C@H]3O)[C@](C)(O)C[C@@H](C)CN[C@H](C)[C@@H](O)[C@](C)(O)[C@@H](CC)OC(=O)[C@@H]2C)C[C@@]1(C)OC` [Example B-53] was tested, and the minimal effective concentration (IL-1β) was 16 µM, the IC50 (TNF-α) was 85 µM and the IC50 (IL-6) was 26 µM.

With `CCCNC[C@]1(O)[C@H](C)O[C@@H](O[C@H]2[C@H](C)[C@@H](O[C@@H]3O[C@H](C)C[C@H](N(C)S(=O)(=O)NC)[C@H]3O)[C@](C)(O)C[C@@H](C)CN[C@H](C)[C@@H](O)[C@](C)(O)[C@@H](CC)OC(=O)[C@@H]2C)C[C@@]1(C)OC` [Example B-55] the minimal effective concentration (IL-1β) was 26 µM, the IC50 (TNF-α) was > 250 µM and the IC50 (IL-6) was > 32 µM.

Compound `CCCNC[C@]1(O)[C@H](C)O[C@@H](O[C@H]2[C@H](C)[C@@H](O[C@@H]3O[C@H](C)C[C@H](N(C)S(=O)(=O)NC4CCCCC4)[C@H]3O)[C@](C)(O)C[C@@H](C)CN[C@H](C)[C@@H](O)[C@](C)(O)[C@@H](CC)OC(=O)[C@@H]2C)C[C@@]1(C)OC` [Example B-56] has a minimal effective concentration (IL-1β) of 16 µM, an IC50 (TNF-α) of 86 µM and an IC50 (IL-6) of 26 µM.

With `CCCNC[C@]1(O)[C@H](C)O[C@@H](O[C@H]2[C@H](C)[C@@H](O[C@@H]3O[C@H](C)C[C@H](N(C)S(=O)(=O)N(C)c4ccccc4)[C@H]3O)[C@](C)(O)C[C@@H](C)CN[C@H](C)[C@@H](O)[C@](C)(O)[C@@H](CC)OC(=O)[C@@H]2C)C[C@@]1(C)OC` [Example B-57] the minimal effective concentration (IL-1β) was 16 µM, the IC50 (TNF-α) was 5 µM and the IC50 (IL-6) was 8 µM.

In the case of `CC[C@H]1OC(=O)[C@H](C)[C@@H](O[C@H]2C[C@@](C)(OC)[C@](O)(CNCCN3CCCC3)[C@H](C)O2)[C@H](C)[C@@H](O[C@@H]2O[C@H](C)C[C@H](N(C)S(=O)(=O)Nc3ccc(C(F)(F)F)cc3)[C@H]2O)[C@](C)(O)C[C@@H](C)CN[C@H](C)[C@@H](O)[C@]1(C)O` [Example B-68], the minimal effective concentration (IL-1β) is reported as 16 µM, the IC50 (TNF-α) is reported as 5 µM and the IC50 (IL-6) is reported as 25 µM.

With `CC[C@H]1OC(=O)[C@H](C)[C@@H](O[C@H]2C[C@@](C)(OC)[C@](O)(CNC)[C@H](C)O2)[C@H](C)[C@@H](O[C@@H]2O[C@H](C)C[C@H](N(C)S(=O)(=O)Nc3ccc(C(F)(F)F)cc3)[C@H]2O)[C@](C)(O)C[C@@H](C)CN[C@H](C)[C@@H](O)[C@]1(C)O` [Example B-76] the minimal effective concentration (IL-1β) was >250 µM, the IC50 (TNF-α) was > 250 µM and the IC50 (IL-6) was > 250 µM.

In the case of `CC[C@H]1OC(=O)[C@H](C)[C@@H](O[C@H]2C[C@@](C)(OC)[C@](O)(CNCCN(C)C)[C@H](C)O2)[C@H](C)[C@@H](O[C@@H]2O[C@H](C)C[C@H](N(C)S(=O)(=O)Nc3ccc(C(F)(F)F)cc3)[C@H]2O)[C@](C)(O)C[C@@H](C)CN[C@H](C)[C@@H](O)[C@]1(C)O` [Example B-82], the minimal effective concentration (IL-1β) is reported as >250 µM, the IC50 (TNF-α) is reported as 71 µM and the IC50 (IL-6) is reported as > 250 µM.

For `CC[C@H]1OC(=O)[C@H](C)[C@@H](O[C@H]2C[C@@](C)(OC)[C@](O)(CNCCCNC(C)=O)[C@H](C)O2)[C@H](C)[C@@H](O[C@@H]2O[C@H](C)C[C@H](N(C)S(=O)(=O)Nc3ccc(C(F)(F)F)cc3)[C@H]2O)[C@](C)(O)C[C@@H](C)CN[C@H](C)[C@@H](O)[C@]1(C)O` [Example B-88], the minimal effective concentration (IL-1β) was 14 µM, the IC50 (TNF-α) was 22 µM and the IC50 (IL-6) was 40 µM.

Compound `CC[C@H]1OC(=O)[C@H](C)[C@@H](O[C@H]2C[C@@](C)(OC)[C@](O)(CNCCCF)[C@H](C)O2)[C@H](C)[C@@H](O[C@@H]2O[C@H](C)C[C@H](N(C)S(=O)(=O)Nc3ccc(C(F)(F)F)cc3)[C@H]2O)[C@](C)(O)C[C@@H](C)CN[C@H](C)[C@@H](O)[C@]1(C)O` [Example B-91] has a minimal effective concentration (IL-1β) of 2 µM, an IC50 (TNF-α) of 34 µM and an IC50 (IL-6) of 101 µM.

`CCCNC[C@]1(O)[C@H](C)O[C@@H](O[C@H]2[C@H](C)[C@@H](O[C@@H]3O[C@H](C)C[C@H](N(C)S(=O)(=O)c4ccc(Br)cc4)[C@H]3Oc3ccc(OC)cc3)[C@](C)(O)C[C@@H](C)CN[C@H](C)[C@@H](O)[C@](C)(O)[C@@H](CC)OC(=O)[C@@H]2C)C[C@@]1(C)OC` [Example B-104] gave a minimal effective concentration (IL-1β) of 3 µM, an IC50 (TNF-α) of 15 µM and an IC50 (IL-6) of 7 µM.

In the case of `CCCNC[C@]1(O)[C@H](C)O[C@@H](O[C@H]2[C@H](C)[C@@H](O[C@@H]3O[C@H](C)C[C@H](N(C)S(=O)(=O)c4ccc(Cl)cc4)[C@H]3Oc3ccc(F)cc3)[C@](C)(O)C[C@@H](C)CN[C@H](C)[C@@H](O)[C@](C)(O)[C@@H](CC)OC(=O)[C@@H]2C)C[C@@]1(C)OC` [Example B-106], the minimal effective concentration (IL-1β) is reported as 3 µM, the IC50 (TNF-α) is reported as 7 µM and the IC50 (IL-6) is reported as 9 µM.

With `CCCNC[C@]1(O)[C@H](C)O[C@@H](O[C@H]2[C@H](C)[C@@H](O[C@@H]3O[C@H](C)C[C@H](N(C)S(=O)(=O)c4ccc(F)cc4)[C@H]3Oc3ccc(F)cc3)[C@](C)(O)C[C@@H](C)CN[C@H](C)[C@@H](O)[C@](C)(O)[C@@H](CC)OC(=O)[C@@H]2C)C[C@@]1(C)OC` [Example B-108] the minimal effective concentration (IL-1β) was 6 µM, the IC50 (TNF-α) was 5 µM and the IC50 (IL-6) was 10 µM.
